Measured values as given in publication PMC8406298, “Discovery of Fungus-Specific Targets and Inhibitors Using Chemical Phenotyping of Pathogenic Spore Germination” (mBio, 2021).
Where “and” joins values, the source holds several entries; their conditions need not be identical. Identical values can stand only once. Like-named read-outs stand apart in the source and are kept apart here.

Legend:
[1] = tested on: normal human dermal fibroblasts (NHDF) cells; test: Fibroblast cytotoxicity (CellTiter-Glo); assay type: cell-based; conditions: at concentrations as high as 80 μM; dose-response 0.5 to 80 μM
Summary of the method: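 Normal human dermal fibroblasts, 1 × 10^3 per well, exposed to compounds at 10 μM for 72 h at 37°C. Viability read as ATP-dependent CellTiter-Glo luminescence. Dose-response runs titrated compounds from 80 μM to 0.5 μM in duplicate.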

[2] = tested on: Cryptococcus spores; test: Quantitative germination assay (QGA), automated microscopy of spore germination; assay type: cell-based, Cryptococcus neoformans serotype D (deneoformans); conditions: for inhibition at 5 µM: Cryptococcus; for germination inhibition phenotype (chemical phenotype) in QGA: at phenotypic concentration
Description: In this automated microscopy-based assay, germination progression of spores is monitored as a function of changes in cell morphology over time (spores are small and oval; yeast are large and circular). Individual spores in a population (∼1 × 10^4 per sample) are measured to determine size (area) and shape (aspect ratio) from the onset of germination, and the data are collected for each cell over the time of germination (Fig. 1A).
Germination assays were modified from those described by Barkal et al. to introduce automation, increase throughput, and refine assay consistency ([12]). Briefly, 384-well plates (Thermo Scientific 142762) were loaded with 10^5 spores per well, and at 0 h, synthetic medium plus 2% dextrose (SD medium) containing the compounds of interest was added to the sample (final volume of 40 μl). All compounds were tested initially at 80 μM; however, concentrations were changed on a case-by-case basis for subsequent experiments. All assays and controls were performed with a final concentration of 0.8% DMSO (the compound solvent) unless specified otherwise. Spores were germinated at 30°C in a humidified chamber, and the same ∼5 × 10^3 cells were monitored every 2 h for 16 h. Imaging was performed on a Ti2 Nikon microscope, and each condition was visualized in a minimum of two individual wells with three fields of view acquired from each well. All images were analyzed as described previously based on cell shape and size using ImageJ. The population ratios of spores, intermediates, and yeast were determined. Error bars in plots are based on the variation among all fields of view acquired. Level of germination was determined by quantifying the decrease in the proportion of spores in a population, and rates were quantified by determining the change in this proportion over time. For all two-dimensional histograms, the x axis represents area from 0 μm^2 to 25 μm^2, and the y axis represents the aspect ratio from 0.4 to 1.
Cycloheximide (0.078 μM to 80 μM) (Dot Scientific, Inc. DSC81040-1), G418 (1.6 mM) (Fisher Scientific AAJ6267106), and puromycin (20 mM) (Dot Scientific, Inc. DSP33020-0.025) were tested with no DMSO (all were water soluble), whereas anisomycin (62.5 μM) (Sigma-Aldrich A9789-5MG) was tested in 2.5% DMSO.
Furcarbanil (80 μM) (Sigma-Aldrich T313122), rotenone (10 μM) (Fisher Scientific 501687383), and antimycin A (2.5 μM) (Santa Cruz Biotechnology, Inc. sc-202467A) were all tested in 0.8% DMSO, and TTFA (200 μM) (Sigma-Aldrich 88300-5G) was tested in 3% DMSO.

[3] = tested on: Cryptococcus yeast (JEC21); test: Oxygen consumption rate experiments (Seahorse XFe96); assay type: cell-based, Cryptococcus neoformans serotype D (deneoformans); conditions: 10 μM inhibitor injected after 20 mM glucose
Description: Oxygen consumption experiments were performed on a Seahorse Biosciences XFe96 extracellular flux analyzer, and the assays were modified from those described by Lev et al. 2020 ([28]). Briefly, cartridges were hydrated overnight in Agilent Seahorse XF calibrant. JEC21 yeast were grown overnight in YPD, washed with double-distilled water (ddH2O) and resuspended to an OD600 of 0.08 in Seahorse XF Dulbecco’s modified Eagle medium (DMEM) at pH 7.4 (Agilent 103575-100). Cells (180 μl) were loaded into each well with the exception of blank wells, which were filled with XF DMEM. Each injection solution was 10× the final volume in XF DMEM. The assay was carried out at 30°C with injections occurring every 60 min. OCR was read every 6 min during each hour interval, with 3 min of mixing and 3 min of measuring. The following final concentrations were achieved after each injection: (a) 20 mM dextrose, (b) 10 μM chosen inhibitor (furcarbanil, B2, or B5) and 1% DMSO, (c) 50 μM rotenone, 50 μM antimycin A, and 1% DMSO, and (d) 100 mM 2-deoxy-D-glucose (2-DG; Sigma-Aldrich D8375-1G). Each condition was tested in triplicates.

| SMILES | phenotypic concentration (concentration showing the germination phenotype in QGA) [2] [µM] | germination inhibition phenotype (chemical phenotype) in QGA [2] | further results |
| --- | --- | --- | --- |
| Cc1nc(NCc2ccccc2)c2ccsc2n1 [A5] | – | – | cytotoxicity against fibroblasts [1]: < 20%; inhibition at 5 µM [2]: > 80% |
| Cc1cc(C(=O)N(CCc2cccs2)C2CC2)c(C)o1 [B2] | – | – | cytotoxicity against fibroblasts [1]: ≤ 25%; inhibition at 5 µM [2]: > 75%; effect on oxygen consumption rate (OCR) [3]: substantial decrease in OCR that was not recovered from |
| Cc1cc(C(=O)N2CCC(Oc3ncccc3Cl)CC2)c(C)o1 [B5] | – | – | effect on oxygen consumption rate (OCR) [3]: small decrease in OCR that was not recovered from |
| CCc1ccc2nc(N)sc2c1 [PubChem CID 773093] | 5 | slow end | – |
| Nc1nc(-c2ccc(Oc3ccccc3)cc2)cs1 [PubChem CID 780598] | 20 | bimodal | – |
| Cc1ccc(OCCn2c(C)nc3ccccc32)cc1 [PubChem CID 790960] | 80 | slow down | – |
| Nc1nc(COc2ccc3ccccc3c2)cs1 [PubChem CID 973573] | 10 | asynchrony | – |
| Cc1ccccc1OCCSCc1nc2ccccc2[nH]1 [PubChem CID 1589778] | 80 | slow down | – |
| Clc1ccc(OCCSCc2nc3ccccc3[nH]2)cc1 [PubChem CID 1589789] | 20 | slow down | – |
| CCCOc1ccc(CSc2nc3ccccc3[nH]2)cc1 [PubChem CID 1653621] | 80 | slow down | – |
| c1ccc(OCCCCSc2nc3ccccc3[nH]2)cc1 [PubChem CID 1653635] | 80 | slow down | – |
| Cc1cc(C)c2sc(NN)nc2c1 [PubChem CID 2049855] | – | combination of the “morphological variability” and the “slow end” phenotypes | phenotypic concentration (concentration showing the germination phenotype in QGA) ([2]; listed as G2): 20 µM and 40 µM |
| CCCCSc1nc2ccc(C)cc2[nH]1 [PubChem CID 2129690] | 80 | slow down | – |
| NNc1nc2cc3c(cc2s1)OCCO3 [PubChem CID 2771030] | – | – | germination inhibition phenotype in QGA ([2]; at 2.5 µM): bimodal; germination inhibition phenotype in QGA ([2]; at higher concentrations (5 µM)): combination phenotype of “bimodal” and “slow end”; phenotypic concentration (concentration showing the germination phenotype in QGA) ([2]; listed as G3): 2.5 µM and 5 µM |
| ClC1(Cl)CC1Cn1cnc2ccccc21 (stereo not shown) [PubChem CID 2936975] | 40 | slow down | – |
| CCn1c(CSc2ccccc2)nc2ccccc21 [PubChem CID 2992099] | 80 | slow down | – |
| COc1cccc2cc(-c3csc(NN=C4CCN(C)CC4)n3)c(=O)oc12 [PubChem CID 4913014] | 20 | asynchrony | – |
| COc1ccc(/C=C/c2nc3ccccc3[nH]2)cc1 [PubChem CID 5769808] | 20 | slow down | – |

| SMILES | phenotypic concentration (concentration showing the germination phenotype in QGA) [2] [µM] | germination inhibition phenotype (chemical phenotype) in QGA [2] | further results |
| --- | --- | --- | --- |
| C/C=C/c1ccc(OCCn2cnc3ccccc32)c(OC)c1 [PubChem CID 5769972] | 10 | slow down | – |
| O=C(Nc1nc2c(Br)cccc2s1)C1CC1 [PubChem CID 7202929] | 10 | asynchrony | – |
| Cc1ccc(-c2nnc(Cn3cnc4ccccc43)o2)cc1 [PubChem CID 16456942] | 5 | slow down | – |
| O=C(NC1CCCC1)c1csc(Nc2ccccc2)n1 [PubChem CID 30860168] | 10 | asynchrony | – |
| CN(C)CCN(C(=O)c1c[nH]c2ccccc12)c1nc2ccc(OC(F)(F)F)cc2s1.Cl [PubChem CID 71782913] | 20 | asynchrony | – |
| O=C(c1cc(-c2ccco2)on1)N1CCC(c2cccs2)CC1 [PubChem CID 71786870] | 40 | asynchrony | – |
| O=C(CSCc1ccccc1)N1CCC(c2cccs2)CC1 [PubChem CID 71786876] | 80 | asynchrony | – |
| O=C(CCSc1ccccc1)N1CCC(c2cccs2)CC1 [PubChem CID 71786877] | 80 | asynchrony | – |
| O=C(CSCc1ccccc1)N1CCC(c2ccsc2)CC1 [PubChem CID 71786985] | 80 | asynchrony | – |
| O=C(CCc1ccccc1Br)N1CCC(c2cccs2)CC1 [PubChem CID 71807060] | 40 | asynchrony | – |
| O=C(CCc1ccccc1Br)N1CCC(c2ccsc2)CC1 [PubChem CID 71807075] | 40 | asynchrony | – |
| O=C(NCc1ccnc(-c2cccs2)c1)c1nc2ccccc2s1 [PubChem CID 91630328] | 40 | asynchrony | – |
| COc1ccc(C[C@H]2NC[C@H](O)[C@H]2OC(C)=O)cc1 [anisomycin, reference compound] | – | slow-down | – |
| CCCCCC[C@H]1C(=O)O[C@H](C)[C@H](NC(=O)c2cccc(NC=O)c2O)C(=O)O[C@@H](C)[C@@H]1OC(=O)CC(C)C [antimycin A, reference compound] | 2.5 | asynchrony | – |
| Cc1cc(C(=O)Nc2ccccc2)c(C)o1 [furcarbanil, reference compound] | 80 | asynchrony | effect on oxygen consumption rate (OCR) [3]: initial substantial decrease in OCR followed by recovery |
| COc1ccc(C[C@H](N)C(=O)N[C@H]2[C@@H](O)[C@H](n3cnc4c(N(C)C)ncnc43)O[C@@H]2CO)cc1 [puromycin, reference compound] | – | slow-down | – |
| C=C(C)[C@H]1Cc2c(ccc3c2O[C@@H]2COc4cc(OC)c(OC)cc4[C@@H]2C3=O)O1 [rotenone, reference compound] | 10 | asynchrony | – |
